Assay [1] has as its target T1, α-NAGA mutant (Homo sapiens, UniProt P17050, A191L/S188E).
T1 sequence (P17050 with tags, fused parts or gaps S188E/A191L): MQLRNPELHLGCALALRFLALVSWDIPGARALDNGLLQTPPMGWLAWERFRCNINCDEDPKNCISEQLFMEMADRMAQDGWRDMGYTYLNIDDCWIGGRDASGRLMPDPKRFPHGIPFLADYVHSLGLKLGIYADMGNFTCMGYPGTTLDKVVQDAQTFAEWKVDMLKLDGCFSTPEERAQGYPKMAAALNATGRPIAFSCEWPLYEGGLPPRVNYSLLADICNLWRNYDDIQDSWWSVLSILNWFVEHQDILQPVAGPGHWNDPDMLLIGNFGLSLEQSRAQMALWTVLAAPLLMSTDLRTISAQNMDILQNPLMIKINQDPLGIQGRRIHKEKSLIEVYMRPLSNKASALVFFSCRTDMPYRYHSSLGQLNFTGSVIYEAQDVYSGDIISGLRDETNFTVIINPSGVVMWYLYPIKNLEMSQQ
Briefly: Heat stability test carried out by measuring enzyme activity. It counts as biochemical. The settings on record: 1 or 10 μM DGJ, FIG. 3. The protocol: 1 μM or 10 μM of DGJ was added to 10 μg/ml of an α-NAGA mutant solution which had been prepared by dissolving an α-NAGA mutant in a 10 mM sodium phosphate buffer (pH 7.5) or a 25 mM sodium acetate buffer (pH 5.2) (the total amount was 100 μl). Then, incubation was carried out at 42° C. for the solution using the 10 mM sodium phosphate buffer (pH 7.5) and at 55° C. for the solution using the 25 mM sodium acetate buffer (pH 5.2). Then, the incubated solution was sampled by 10 μl at points in time which were respectively 0 and 60 minutes after the start of the incubation. Each of the samples thus obtained was immediately added to 40 μl of a 0.1 M phosphate-citrate buffer (pH 4.6) in which a 5 mM substrate was dissolved, and enzyme activity was measured. Remaining activity is indicated based on an assumption that an enzyme activity value after 0 minutes is 100%. FIG. 3 is a view showing a result of heat stability test for confirming inhibitory activity of DGJ with respect to an α-NAGA mutant.

Assay [2] relates to cultivated fibroblast derived from a patient of Fabry disease. Briefly: Simultaneous addition of α-NAGA mutant and DGJ to cultivated fibroblast derived from patient of Fabry disease. Format: cell-based, human. As for the experimental part: A cultivated fibroblast derived from a patient of Fabry disease was cultured at 37° C. under a 5% carbon dioxide environment with use of an F-10 medium to which a 10% fetal calf serum and an antibiotic substance had been added. First, concentration dependence of DGJ with respect to uptake efficiency of an α-NAGA mutant was analyzed. The cells were seeded to a 12-well plate at 1.0×10^5 cells/well. Then, the medium was exchanged with a medium containing 1 μg/mL of an α-NAGA mutant and any of concentrations (0, 1, 10, and 100 μM) of DGJ, and cultivation was carried out for 24 hours. The cells were cleaned three times with PBS, then treated with use of trypsin, and then collected. 20 mM MES (pH 6.0) containing Complete Mini (Roche) was added to the collected cells, and the cells were then subjected to an ultrasonic treatment. The homogenate thus obtained was subjected to centrifugal separation under conditions of 4° C. and 12,000 rpm, and the obtained supernatant liquid was used as samples for enzyme activity measurement, protein quantification, and Western blotting.
Next, in order to confirm time dependence, 1 μg/mL of an α-NAGA mutant and 10 μM of DGJ were added to the cells, and cultivation was carried out for 24 hours, 48 hours, and 72 hours. Then, enzyme activity measurement, protein quantification, and Western blotting were carried out. […]

As to `OCC1NCC(O)C(O)C1O` [DGJ, (2R,3S,4R,5S)-2-(hydroxymethyl)piperdine-3,4,5-triol], the “heat stability of the α-NAGA mutant (remaining activity after 60 minutes)” value is recorded as “heat stability of the α-NAGA mutant was improved” in assay [1] (acidic condition pH 5.2, 55° C., higher improvement than at neutral pH) and “heat stability of the α-NAGA mutant was improved” in assay [1] (neutral condition pH 7.5, 42° C.). Besides, the “α-NAGA mutant enzyme activity in cells” value in assay [2] (1 μg/mL α-NAGA mutant plus 0-100 μM DGJ 24 hours, or 10 μM DGJ 24-72 hours, FIG. 6(a), 7(a)) is listed as “enzyme activity was improved”. In addition, in assay [2] (simultaneous addition of DGJ versus no DGJ, FIG. 6(b), 7(b)), the “amount of protein of the α-NAGA mutant taken in a cell (Western blotting)” value was “confirmed to be increased”.

(Values after US20200115698A1, “PHARMACEUTICAL COMBINATION FOR TREATMENT OF FABRY DISEASE AND USE THEREOF” (MEIJI PHARMACEUTICAL UNIVERSITY, priority 2017, published 2020).)
